Measurements: US20100048479A1, “ADRENAL GRK2 ACTIVITY AS A THERAPEUTIC TARGET FOR HEART FAILURE” (priority 2006, published 2010)
Where two headings read alike, the source gives them in different places.

Legend:
α2AR [1] = experiment: Moxonidine treatment of HF rats, plasma catecholamine levels; assay type: in vivo, rat; details: 7d of moxonidine 1 mg/kg/d intraperitoneally
Procedure: In vivo adrenal gene delivery: All animal procedures and experiments were performed in accordance with the guidelines of the Institutional Animal Care and Use Committee of Thomas Jefferson University. For adrenal-specific in vivo gene delivery in HF rats, adenovirus was delivered directly to the adrenal gland using a surgical technique. Rats with chronic heart failure ten weeks after myocardial infarction were directly injected with virus into both of their adrenal glands, immediately after a transversal cut of the median abdomen was made and ventral visceral organs temporarily placed on the side so as to expose the retroperitoneal region. […] HF rats were treated with either AdβARKct or AdGFP as a control. […] For moxonidine treatment of HF rats, systemic administration of 1.0 mg/kg/d of moxonidine (delivered via a daily intraperitoneal injection) was initiated at the time of in vivo adrenal gene delivery and continued for seven days, at which time plasma was taken for determination of circulating catecholamine levels (see below).
Plasma and in vitro catecholamine secretion measurements: Plasma Epi and NE levels were determined by ELISA, performed on rat and mouse plasma samples with the BI-CAT EIA kit from ALPCO Diagnostics (Windham, N.H.). In vitro Epi and NE secretion in the supernatant of cultured chromaffin cells was measured by use of the same ELISA kit essentially as described previously by Wilson & Kirschner, 3J. Neurosci. 1971-78 (1983). In vitro catecholamine (CA) secretion measurements. Briefly, 48 hrs post-isolation, chromaffin cells were placed in a balanced salts buffer and stimulated with 20 μM nicotine for 30 min, following pre-treatment with 10 μM UK14304 (Sigma-Aldrich) or vehicle for 30 min. At the end of nicotine treatment, the supernatant was collected for determination of its CA content. […] In all experiments, the supernatants used for CA measurements were collected from cultures of equal numbers of cells as determined by cell counting and post-experiment protein determination in harvested cells.

α2AR [2] = details: MOXSE and MOXCON trials; cited from earlier work
HF rat chromaffin cells = experiment: In vitro catecholamine secretion from chromaffin cells of HF and sham rats (nicotine stimulus, UK14304 pre-treatment); assay type: cell-based; details: for EC50: Rattus norvegicus
Text: (§1) Experimental Procedures: Adrenal chromaffin cell isolation and culture: The animal models of heart failure: mice with myocardial-targeted overexpression of calsequestrin (CSQ/Tg mice); male Sprague-Dawley rats (450-500 g; Harlan) ten weeks post-cryo-myocardial infarction (cryo-MI) (HF rats); as well as CSQ/βARKct mice, were previously established and characterized. Harding et al., 98 P.N.A.S. USA, 5809-14 (2001); Most et al., 114 J. Clin. Invest. 1550-63 (2004). Nontransgenic littermate mice were used as healthy controls for the mouse heart failure model. Chromaffin cells were isolated from adrenal glands excised from these animals and cultured as described previously in Brede et al., 2003. […] Cells from separate isolations were used in each experiment.
(§2) Plasma and in vitro catecholamine secretion measurements: Plasma Epi and NE levels were determined by ELISA, performed on rat and mouse plasma samples with the BI-CAT EIA kit from ALPCO Diagnostics (Windham, N.H.). In vitro Epi and NE secretion in the supernatant of cultured chromaffin cells was measured by use of the same ELISA kit essentially as described previously by Wilson & Kirschner, 3J. Neurosci. 1971-78 (1983). In vitro catecholamine (CA) secretion measurements. Briefly, 48 hrs post-isolation, chromaffin cells were placed in a balanced salts buffer and stimulated with 20 μM nicotine for 30 min, following pre-treatment with 10 μM UK14304 (Sigma-Aldrich) or vehicle for 30 min. At the end of nicotine treatment, the supernatant was collected for determination of its CA content. Adenoviral-transfected cells were infected 48 hrs post-isolation and cells were subjected to the various treatments 24 hrs after transfection (72 hrs post-isolation). In all experiments, the supernatants used for CA measurements were collected from cultures of equal numbers of cells as determined by cell counting and post-experiment protein determination in harvested cells.

[3] = test system: CSQ/Tg mouse-derived chromaffin cells; experiment: In vitro catecholamine secretion from chromaffin cells of CSQ/Tg and NLC mice (nicotine stimulus, UK14304 pre-treatment); assay type: cell-based; details: for Inhibition of Epi and NE secretion in response to nicotine: 10 μM UK14304 pre-treatment; for EC50: Mus musculus, n=6
Text: as §1, §2

chromaffin cells = test system: chromaffin cells
Procedure: as §2
Following this period, in vitro CA secretion assays were performed using nicotine to activate nicotinic cholinergic receptors (the physiological stimulus for CA secretion from these cells) and the α2AR agonist UK14304 to activate these negative feedback receptors.

[4] = test system: rat primary chromaffin cells; experiment: βarr1 membrane recruitment in rat primary chromaffin cells; assay type: cell-based; details: cells infected with GFP, 10 μM UK14304 for 8 min
Procedure: β-arrestin membrane recruitment: βarr1 recruitment to rat primary chromaffin cell membranes or whole adrenal gland-derived plasma membranes was measured by western blotting in membrane preparations, essentially as described previously in Perry et al., 198 Science 834-36 (2002). Cultured chromaffin cells, isolated from rat adrenal glands, were transfected with the indicated recombinant adenoviruses and 24 hrs post-infection they were treated with vehicle or 10 μM UK14304 for 8 min. The cells were then harvested and plasma membranes prepared by hypotonic lysis with 5 mM TrisCl, 5 mM EDTA, pH 7.4, and subsequent ultracentrifugation at 47.000×g. The membranes were resuspended in RIPA buffer, containing Triton 0.5% and protease inhibitors, and then fractions of membrane lysates containing 50 μg of protein were loaded for SDS-PAGE, and subsequently western blotted with an antibody against rat βarr1 and −2 (A1CT40, a generous gift from Dr. R. J. Lefkowitz, Duke Univ. Medical Center, Durham, N.C.). Plasma membrane preparations from whole adrenal glands excised from in vivo infected rats were obtained by the same procedure. Blotting for actin in the same membrane lysates was also performed as loading control. βarr1 membrane recruitment was quantified as the densitometric ratio of βarr1 and actin bands detected in each sample.

[5] = test system: chromaffin cells isolated from HF or sham-operated rats; details: 10 μM UK14304 pretreatment
Procedure: Calibration and assessment of intracellular Ca^2+ transients in chromaffin cells in response to K^+-induced depolarization were performed essentially as described. Brede, 2003; Zhou & Neher, 469 J. Physiol. 245-73 (1993). Changes in intracellular Ca^2+ were monitored fluorimetrically using the Ca^2+-sensitive probe Fura 2 (1 μM). The recording system included a Zeiss, Axiovert S170 inverted microscope fitted with epifluorescence (monochromator TILL Polychrome II, Germany). Cells were alternatively illuminated at 340 nm and 380 nm at a frequency of 140 Hz. Emission for each excitation wavelength was filtered at 510 nm and digitized using interface (EPC9, HEKA, Germany). […] Chromaffin cells isolated from HF or sham-operated rats were exposed to 10 μM UK14304 or vehicle for 30 min in culture medium containing a fixed Ca^2+ concentration of 2.5 mM, and then 150 mM KCl was added to induce depolarization. Only round-shaped, healthy, and attached chromaffin cells with a resting 340/380 ratio lower than 1 were selected for measurement.

α2AR [6] = details: HF animal models and human heart failure patients; cited from earlier work

For `COc1nc(C)nc(Cl)c1N=C1NCCN1` [moxonidine], the “Circulating Epi levels” value (α2AR [1]; adrenal AdGFP-treated HF rats) was “virtually no effect”, the “Circulating NEpi levels” value (α2AR [1]; adrenal AdGFP-treated HF rats) was “lowered” and the “NE and Epi plasma levels” value (α2AR [1]; adrenal AdβARKct-treated HF rats) was “further significantly reduced”. For the same molecule, the “Reason for early termination of the trials” value (α2AR [2]) was “excessive adverse effects and fatalities” and the “SNS activity in heart failure patients” value (α2AR [2]) was “significant reduction of SNS activity”.
For `Brc1c(NC2=NCCN2)ccc2nccnc12` [UK14304], the “Inhibition of secretion of both catecholamines in response to nicotine” value (HF rat chromaffin cells; 10 μM UK14304 pre-treatment) was “fails to inhibit secretion”, the EC50 (HF rat chromaffin cells; AdGFP cells, n=6, read-out: EC50 of UK14304-mediated inhibition of Epi secretion) was 6400 ± 2500 nM and the EC50 (HF rat chromaffin cells; AdGFP cells, n=6, read-out: EC50 of UK14304-mediated inhibition of NEpi secretion) was 680 ± 25.1 nM. The EC50 (HF rat chromaffin cells; AdβARKct cells, n=6, read-out: EC50 of UK14304-mediated inhibition of Epi secretion) was 100 ± 5.2 nM, the EC50 (HF rat chromaffin cells; AdβARKct cells, n=6, read-out: EC50 of UK14304-mediated inhibition of NEpi secretion) was 110 ± 1.2 nM and the “Inhibition of Epi and NE secretion in response to nicotine” value ([3]; CSQ/Tg mouse-derived chromaffin cells) was “completely fails to inhibit”. It also gave an EC50 ([3]; CSQ/Tg mouse-derived chromaffin cells, AdGFP cells, mean±s.e.m., read-out: EC50 of UK14304-mediated inhibition of Epi secretion) of 5500 ± 1300 nM, an EC50 ([3]; CSQ/Tg mouse-derived chromaffin cells, AdGFP cells, read-out: EC50 of UK14304-mediated inhibition of NEpi secretion) of 8000 ± 2630 nM and an EC50 ([3]; CSQ/Tg mouse-derived chromaffin cells, AdβARKct cells, read-out: EC50 of UK14304-mediated inhibition of Epi secretion) of 200 ± 1.5 nM. For the same molecule, the EC50 ([3]; CSQ/Tg mouse-derived chromaffin cells, AdβARKct cells, read-out: EC50 of UK14304-mediated inhibition of NEpi secretion) was 50 ± 1.4 nM, the “Inhibition of Epi and NE secretion in response to nicotine” value ([3]; control (NLC) cells) was “attenuates catecholamine release” and the “Catecholamine secretion, UK14304 pre-treatment alone” value ([3]; without nicotine) was “no effect”. The “Ability of UK14304 to inhibit CA secretion” value (chromaffin cells; cells from AdβARKct-treated rats, 10 μM UK14304) was “normal and similar to control cells”, the “Effect of UK14304 on CA secretion in response to nicotine” value (chromaffin cells; chromaffin cells from AdGRK2-treated rats, 10 μM UK14304) was “lost” and the “Effect of UK14304 on CA secretion in response to nicotine” value (chromaffin cells; chromaffin cells from control AdGFP-treated rats, 10 μM UK14304) was “abolishes CA secretion”. The “βarr1 recruitment to chromaffin cell membranes in response to α2AR stimulation” value [4] was “large βarr1 recruitment”, the “Depolarization-induced Ca2+ entry” value ([5]; HF chromaffin cells) was “fails to significantly alter” and the “Depolarization-induced Ca2+ entry” value ([5]; control (sham) cells) was “significantly inhibited”.
For `CN1CCCC1c1cccnc1` (stereo not shown) [nicotine], the “Nicotine-stimulated Epi and NE secretion” value (chromaffin cells; chromaffin cells from AdGFP-, AdGRK2- and AdβARKct-treated rats, 20 μM nicotine) was “to an equal extent”.
In the case of `Clc1cccc(Cl)c1N=C1NCCN1` [clonidine], the “Sympatholytic response to clonidine administration” value (α2AR [6]) is listed as “diminished sympatholytic responses”.
